Experimental data as given in ChEMBL document CHEMBL4190322, “Structure-based development of novel triazoles and related thiazolotriazoles as anticancer agents and Cdc25A/B phosphatase inhibitors. Synthesis, in vitro biological evaluation, molecular docking and in silico ADME-T studies” (Eur J Med Chem, 2017).
Active and inactive are the calls of the source. No cut-off for these calls is given here.

Experiments:
Assay type in all cases: functional
A498 = assay: Growth inhibition of human A498 cells at 10 uM after 48 hrs by SRB assay relative to control
RPMI-8226 = assay: Growth inhibition of human RPMI8226 cells at 10 uM after 48 hrs by SRB assay relative to control
HOP-92 = assay: Growth inhibition of human HOP92 cells at 10 uM after 48 hrs by SRB assay relative to control; conditions: HOP-92, 48 h, read-out: GI
NCI-H226 = assay: Growth inhibition of human NCI-H226 cells at 10 uM after 48 hrs by SRB assay relative to control
CCRF-CEM = assay: Growth inhibition of human CCRF-CEM cells at 10 uM after 48 hrs by SRB assay relative to control; conditions: read-out: GI
MOLT-4 = assay: Growth inhibition of human MOLT4 cells at 10 uM after 48 hrs by SRB assay relative to control; conditions: MOLT-4, 48 h, read-out: GI
A549 = assay: Growth inhibition of human A549 cells at 10 uM after 48 hrs by SRB assay relative to control
HCT-116 = assay: Growth inhibition of human HCT116 cells at 10 uM after 48 hrs by SRB assay relative to control
RXF 393 = assay: Growth inhibition of human RXF393 cells at 10 uM after 48 hrs by SRB assay relative to control
SR = assay: Growth inhibition of human SR cells at 10 uM after 48 hrs by SRB assay relative to control; conditions: read-out: GI
PC-3 = assay: Growth inhibition of human PC3 cells at 10 uM after 48 hrs by SRB assay relative to control; conditions: PC-3, 48 h, read-out: GI
U-251 = assay: Growth inhibition of human U251 cells at 10 uM after 48 hrs by SRB assay relative to control; conditions: U-251, 48 h, read-out: GI
UO-31 = assay: Growth inhibition of human UO31 cells at 10 uM after 48 hrs by SRB assay relative to control; conditions: UO-31, 48 h, read-out: GI
SNB-75 = assay: Growth inhibition of human SNB75 cells at 10 uM after 48 hrs by SRB assay relative to control
HL-60 = assay: Growth inhibition of human HL60 cells at 10 uM after 48 hrs by SRB assay relative to control
MDA-MB-468 = assay: Growth inhibition of human MDA-MB-468 cells at 10 uM after 48 hrs by SRB assay relative to control
OVCAR-8 = assay: Growth inhibition of human OVCAR8 cells at 10 uM after 48 hrs by SRB assay relative to control
Hs-578T = assay: Growth inhibition of human Hs 578T cells at 10 uM after 48 hrs by SRB assay relative to control
NCI-H522 = assay: Growth inhibition of human NCI-H522 cells at 10 uM after 48 hrs by SRB assay relative to control; conditions: NCI-H522, 48 h, read-out: GI
SK-OV-3 = assay: Growth inhibition of human SKOV3 cells at 10 uM after 48 hrs by SRB assay relative to control
HOP-62 = assay: Growth inhibition of human HOP62 cells at 10 uM after 48 hrs by SRB assay relative to control; conditions: HOP-62, 48 h, read-out: GI
SNB-19 = assay: Growth inhibition of human SNB19 cells at 10 uM after 48 hrs by SRB assay relative to control
786-0 = assay: Growth inhibition of human 786-0 cells at 10 uM after 48 hrs by SRB assay relative to control
CAKI-1 = assay: Growth inhibition of human Caki1 cells at 10 uM after 48 hrs by SRB assay relative to control
K562 = assay: Growth inhibition of human K562 cells at 10 uM after 48 hrs by SRB assay relative to control; conditions: K562, 48 h, read-out: GI
NCI/ADR-RES = assay: Growth inhibition of human NCI/ADR-RES cells at 10 uM after 48 hrs by SRB assay relative to control; conditions: read-out: GI
UACC-257 = assay: Growth inhibition of human UACC257 cells at 10 uM after 48 hrs by SRB assay relative to control
MCF7 = assay: Growth inhibition of human MCF7 cells at 10 uM after 48 hrs by SRB assay relative to control
SK-MEL-5 = assay: Growth inhibition of human SK-MEL-5 cells at 10 uM after 48 hrs by SRB assay relative to control; conditions: SK-MEL-5, 48 h, read-out: GI
SF-268 = assay: Growth inhibition of human SF268 cells at 10 uM after 48 hrs by SRB assay relative to control
LOX IMVI = assay: Growth inhibition of human LOXIMVI cells at 10 uM after 48 hrs by SRB assay relative to control; conditions: read-out: GI
HT-29 = assay: Growth inhibition of human HT-29 cells at 10 uM after 48 hrs by SRB assay relative to control
KM12 = assay: Growth inhibition of human KM12 cells at 10 uM after 48 hrs by SRB assay relative to control
NCI-H322M = assay: Growth inhibition of human NCI-H322M cells at 10 uM after 48 hrs by SRB assay relative to control
UACC-62 = assay: Growth inhibition of human UACC62 cells at 10 uM after 48 hrs by SRB assay relative to control
NCI-H23 = assay: Growth inhibition of human NCI-H23 cells at 10 uM after 48 hrs by SRB assay relative to control; conditions: NCI-H23, 48 h, read-out: GI
SK-MEL-2 = assay: Growth inhibition of human SK-MEL-2 cells at 10 uM after 48 hrs by SRB assay relative to control; conditions: SK-MEL-2, 48 h, read-out: GI
OVCAR-3 = assay: Growth inhibition of human OVCAR3 cells at 10 uM after 48 hrs by SRB assay relative to control
Malme-3M = assay: Growth inhibition of human MALME-3M cells at 10 uM after 48 hrs by SRB assay relative to control; conditions: read-out: GI
OVCAR-4 = assay: Growth inhibition of human OVCAR4 cells at 10 uM after 48 hrs by SRB assay relative to control

Row | Compound | inhibition of growth at 10 µM (HOP-92) | inhibition of growth at 10 µM (CCRF-CEM) | inhibition of growth at 10 µM (MOLT-4) | growth inhibition (GI) (HCT-116) | growth inhibition (GI) (RXF 393) | inhibition of growth at 10 µM (SR) | inhibition of growth at 10 µM (PC-3) | inhibition of growth at 10 µM (U-251) | inhibition of growth at 10 µM (UO-31) | growth inhibition (GI) (HL-60) | growth inhibition (GI) (OVCAR-8) | inhibition of growth at 10 µM (NCI-H522) | inhibition of growth at 10 µM (HOP-62) | growth inhibition (GI) (786-0) | inhibition of growth at 10 µM (K562) | inhibition of growth at 10 µM (NCI/ADR-RES) | inhibition of growth at 10 µM (SK-MEL-5) | inhibition of growth at 10 µM (LOX IMVI) | growth inhibition (GI) (NCI-H322M) | inhibition of growth at 10 µM (NCI-H23) | other results
1 | COc1ccc(Cc2nnc(SCC(=O)Nc3ccc(C)cc3)n2-c2ccccc2)cc1 | 8.7% | 8.16% | 14.9% | inactive | inactive | 17% | 16.3% | 1.62% | 11.4% | inactive | inactive | 19% | 6.8% | inactive | 9.31% | 6.11% | 1.4% | 2.2% | inactive | 5.6% | growth inhibition (GI) (A498): inactive; growth inhibition (GI) (RPMI-8226): inactive; growth inhibition (GI) (NCI-H226): inactive; growth inhibition (GI) (A549): inactive; growth inhibition (GI) (SNB-75): inactive; growth inhibition (GI) (MDA-MB-468): inactive; inhibition of growth at 10 µM (Hs-578T; read-out: GI): 1.15%; inhibition of growth at 10 µM (SK-OV-3; SK-OV-3, 48 h, read-out: GI): 7.38%; growth inhibition (GI) (SNB-19): inactive; growth inhibition (GI) (CAKI-1): inactive; growth inhibition (GI) (UACC-257): inactive; growth inhibition (GI) (MCF7): inactive; growth inhibition (GI) (SF-268): inactive; growth inhibition (GI) (HT-29): inactive; growth inhibition (GI) (KM12): inactive; inhibition of growth at 10 µM (UACC-62; UACC-62, 48 h, read-out: GI): 2.9%; inhibition of growth at 10 µM (SK-MEL-2): 17.3%; growth inhibition (GI) (OVCAR-3): inactive; inhibition of growth at 10 µM (Malme-3M): 1.56%; growth inhibition (GI) (OVCAR-4): inactive
2 | CCSc1nnc(Cc2ccc(OC)cc2)n1-c1ccccc1 | 8.26% | 7.61% | 10% | inactive | inactive | 3.31% | 14.3% | 13% | 20% | inactive | inactive | 22.4% | 2.28% | inactive | 14.1% | 6.88% | 4.7% | 4.89% | inactive | 6.16% | inhibition of growth at 10 µM (A498; A498, 48 h, read-out: GI): 22.1%; inhibition of growth at 10 µM (RPMI-8226; RPMI-8226, 48 h, read-out: GI): 13.5%; inhibition of growth at 10 µM (NCI-H226; NCI-H226, 48 h, read-out: GI): 5.31%; inhibition of growth at 10 µM (A549; A549, 48 h, read-out: GI): 5.86%; inhibition of growth at 10 µM (SNB-75; SNB-75, 48 h, read-out: GI): 10%; inhibition of growth at 10 µM (MDA-MB-468; MDA-MB-468, 48 h, read-out: GI): 10.7%; growth inhibition (GI) (Hs-578T): inactive; growth inhibition (GI) (SK-OV-3): inactive; inhibition of growth at 10 µM (SNB-19; SNB-19, 48 h, read-out: GI): 14.5%; inhibition of growth at 10 µM (CAKI-1; CAKI-1, 48 h, read-out: GI): 11.9%; inhibition of growth at 10 µM (UACC-257; UACC-257, 48 h, read-out: GI): 3.16%; inhibition of growth at 10 µM (MCF7; MCF7, 48 h, read-out: GI): 5.53%; inhibition of growth at 10 µM (SF-268; SF-268, 48 h, read-out: GI): 6.15%; inhibition of growth at 10 µM (HT-29; HT-29, 48 h, read-out: GI): 8.24%; inhibition of growth at 10 µM (KM12; KM12, 48 h, read-out: GI): 3.07%; growth inhibition (GI) (UACC-62): inactive; inhibition of growth at 10 µM (SK-MEL-2): 5%; growth inhibition (GI) (OVCAR-3): inactive; inhibition of growth at 10 µM (Malme-3M): 9.23%; inhibition of growth at 10 µM (OVCAR-4; OVCAR-4, 48 h, read-out: GI): 7.48%
